Results published in US10259810B2, “N-sulfonylated pyrazolo[3,4-b]pyridin-6-carboxamides and method of use” (AbbVie S.à.r.l., priority 2015, dated 2019).

Columns and labels:
ΔF508-CFTR [1] = molecular target: T1, ΔF508-CFTR (Homo sapiens, UniProt P13569, DEL508-508); test: CFTR cell surface levels using HRP-tagged ΔF508-CFTR expressing CFBE cells, in the presence of a co-corrector; type: cell-based; conditions: HRP-tagged ΔF508-CFTR CFBE cells, in the presence of 3 μM co-corrector; for EC50: read-out: EC50
T1 construct: host or cells: CFBE41o-, doxycycline-inducible
Procedure, shortened: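 Chemiluminescent read-out of surface HRP (15 min, dark) after PBS washes. Activity is normalized as 100×(sample−DMSO)/(3 μM co-corrector alone−DMSO).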

ΔF508-CFTR [2] = molecular target: T1, ΔF508-CFTR; test: CFTR cell surface levels using HRP-tagged ΔF508-CFTR expressing CFBE cells, intrinsic corrector capacity; type: cell-based; parameters: % Activation: concentration or dose not given beside the values; conditions: HRP-tagged ΔF508-CFTR expressing CFBE41o- cells, compound alone (intrinsic corrector capacity), 20 hours at 33° C.; for EC50: read-out: EC50
Procedure, shortened: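 Read-out: chemiluminescent HRP activity of ECL4-HRP-tagged ΔF508-CFTR at the cell surface, 15 min substrate in dark. Normalized as 100×(sample−DMSO)/(positive control−DMSO).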

T1 sequence (P13569 with tags, fused parts or gaps DEL508-508): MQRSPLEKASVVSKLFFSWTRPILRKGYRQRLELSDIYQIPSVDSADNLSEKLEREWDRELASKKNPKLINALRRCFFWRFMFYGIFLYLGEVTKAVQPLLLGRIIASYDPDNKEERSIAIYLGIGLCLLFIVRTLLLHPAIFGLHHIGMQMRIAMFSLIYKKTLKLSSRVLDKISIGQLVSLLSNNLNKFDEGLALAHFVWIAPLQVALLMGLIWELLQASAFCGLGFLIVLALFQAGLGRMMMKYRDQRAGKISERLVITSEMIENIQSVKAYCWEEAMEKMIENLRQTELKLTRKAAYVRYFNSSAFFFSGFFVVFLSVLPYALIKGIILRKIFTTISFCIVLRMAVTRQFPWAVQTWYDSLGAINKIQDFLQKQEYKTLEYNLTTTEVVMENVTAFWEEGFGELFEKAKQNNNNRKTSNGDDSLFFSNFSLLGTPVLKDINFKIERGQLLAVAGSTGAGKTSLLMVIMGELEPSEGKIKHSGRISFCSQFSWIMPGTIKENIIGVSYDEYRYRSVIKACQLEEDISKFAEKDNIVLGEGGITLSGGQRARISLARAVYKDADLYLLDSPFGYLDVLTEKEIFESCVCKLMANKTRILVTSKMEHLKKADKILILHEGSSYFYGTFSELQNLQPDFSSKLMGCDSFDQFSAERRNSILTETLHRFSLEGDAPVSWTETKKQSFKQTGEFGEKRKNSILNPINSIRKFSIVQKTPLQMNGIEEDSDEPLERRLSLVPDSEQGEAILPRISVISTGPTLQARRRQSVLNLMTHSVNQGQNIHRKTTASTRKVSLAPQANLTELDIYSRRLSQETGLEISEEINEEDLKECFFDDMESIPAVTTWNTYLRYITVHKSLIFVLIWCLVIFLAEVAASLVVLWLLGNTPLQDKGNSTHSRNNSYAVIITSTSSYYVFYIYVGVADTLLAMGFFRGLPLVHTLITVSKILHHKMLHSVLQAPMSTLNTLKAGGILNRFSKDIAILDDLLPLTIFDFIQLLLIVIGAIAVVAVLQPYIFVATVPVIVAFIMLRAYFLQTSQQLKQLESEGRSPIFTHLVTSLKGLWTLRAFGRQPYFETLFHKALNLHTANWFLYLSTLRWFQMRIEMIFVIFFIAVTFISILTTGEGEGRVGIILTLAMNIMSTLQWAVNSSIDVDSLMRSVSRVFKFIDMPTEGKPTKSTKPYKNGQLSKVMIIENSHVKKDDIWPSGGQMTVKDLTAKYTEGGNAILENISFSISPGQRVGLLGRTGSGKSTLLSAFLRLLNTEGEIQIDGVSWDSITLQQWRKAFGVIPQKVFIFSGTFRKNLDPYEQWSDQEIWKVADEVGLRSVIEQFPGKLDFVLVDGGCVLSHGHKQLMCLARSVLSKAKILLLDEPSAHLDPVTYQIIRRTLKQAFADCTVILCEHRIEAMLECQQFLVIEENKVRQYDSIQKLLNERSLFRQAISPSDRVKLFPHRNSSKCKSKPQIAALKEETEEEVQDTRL

Row | Structure (SMILES) | % Activation (ΔF508-CFTR [1]) | EC50 (ΔF508-CFTR [1]) | % Activation (ΔF508-CFTR [2]) | EC50 (ΔF508-CFTR [2])
1 | COC1CN(c2cccc(-n3nc(C(C)C)c4c(-c5ccc(N6CCOCC6)cc5)cc(C(=O)NS(C)(=O)=O)nc43)c2)C1 [Compound 36, N-(methanesulfonyl)-1-[3-(3-methoxyazetidin-1-yl)phenyl]-4-[4-(morpholin-4-yl)phenyl]-3-(propan-2-yl)-1H-pyrazolo[3,4-b]pyridine-6-carboxamide] | 572.93% | 246 nM | 384.57% | 416 nM
2 | Cc1nn(-c2ccccc2)c2nc(C(=O)NS(C)(=O)=O)cc(-c3ccc(N4CCOCC4)nc3)c12 [Compound 37, N-(methanesulfonyl)-3-methyl-4-[6-(morpholin-4-yl)pyridin-3-yl]-1-phenyl-1H-pyrazolo[3,4-b]pyridine-6-carboxamide] | 457.25% | 1160 nM | 222.85% | 1660 nM
3 | CC(C)c1nn(C2CCC(F)(F)CC2)c2nc(C(=O)NS(C)(=O)=O)cc(-c3ccc(N4CCOCC4)cc3)c12 [Compound 38, 1-(4,4-difluorocyclohexyl)-N-(methanesulfonyl)-4-[4-(morpholin-4-yl)phenyl]-3-(propan-2-yl)-1H-pyrazolo[3,4-b]pyridine-6-carboxamide] | 447.7% | 581 nM | 182% | 850 nM
4 | CC(C)c1nn(C2CCCOC2)c2nc(C(=O)NS(C)(=O)=O)cc(-c3ccc(N4CCOCC4)cc3)c12 (centres unmarked) [Compound 39, N-(methanesulfonyl)-4-[4-(morpholin-4-yl)phenyl]-1-(oxan-3-yl)-3-(propan-2-yl)-1H-pyrazolo[3,4-b]pyridine-6-carboxamide] | 378.63% | 508 nM | 143.4% | 838 nM
5 | CCS(=O)(=O)NC(=O)c1cc(-c2ccc(N3CCOCC3)cc2)c2c(C(C)C)nn(C3CCCOC3)c2n1 (centres unmarked) [Compound 40, N-(ethanesulfonyl)-4-[4-(morpholin-4-yl)phenyl]-1-(oxan-3-yl)-3-(propan-2-yl)-1H-pyrazolo[3,4-b]pyridine-6-carboxamide] | 373.43% | 423 nM | 147.1% | 451 nM
6 | Cc1nn(-c2ccccc2)c2nc(C(=O)NS(C)(=O)=O)cc(-c3ccc(N4CC(N(C)C)C4)cc3)c12 [Compound 41, 4-{4-[3-(dimethylamino)azetidin-1-yl]phenyl}-N-(methanesulfonyl)-3-methyl-1-phenyl-1H-pyrazolo[3,4-b]pyridine-6-carboxamide] | 253.3% | 1140 nM | 52.497% | 817 nM
7 | CCS(=O)(=O)NC(=O)c1cc(-c2ccc(N3CC(N(C)C)C3)cc2)c2c(C)nn(-c3ccccc3)c2n1 [Compound 42, 4-{4-[3-(dimethylamino)azetidin-1-yl]phenyl}-N-(ethanesulfonyl)-3-methyl-1-phenyl-1H-pyrazolo[3,4-b]pyridine-6-carboxamide] | 226.3% | 378 nM | 45.225% | 2120 nM
8 | CC(C)c1nn(-c2cccc(N3CC(C)(C)C3)c2)c2nc(C(=O)NS(C)(=O)=O)cc(-c3ccc(N4CCOCC4)cc3)c12 [Compound 43, 1-[3-(3,3-dimethylazetidin-1-yl)phenyl]-N-(methanesulfonyl)-4-[4-(morpholin-4-yl)phenyl]-3-(propan-2-yl)-1H-pyrazolo[3,4-b]pyridine-6-carboxamide] | 627% | 289 nM | 379.67% | 299 nM
9 | CC(C)c1nn(C2CCCCC2)c2nc(C(=O)NS(C)(=O)=O)cc(-c3ccc(N4CCOCC4)nc3)c12 [Compound 44, 1-cyclohexyl-N-(methanesulfonyl)-4-[6-(morpholin-4-yl)pyridin-3-yl]-3-(propan-2-yl)-1H-pyrazolo[3,4-b]pyridine-6-carboxamide] | 412.63% | 276 nM | 203.87% | 404 nM
10 | CCS(=O)(=O)NC(=O)c1cc(-c2ccc(N3CCOCC3)cc2)c2c(C(C)C)nn(C3CCCCC3)c2n1 [Compound 45, 1-cyclohexyl-N-(ethanesulfonyl)-4-[4-(morpholin-4-yl)phenyl]-3-(propan-2-yl)-1H-pyrazolo[3,4-b]pyridine-6-carboxamide] | 438.4% | 203 nM | 210.97% | 327 nM
11 | CC(C)c1nn(-c2cccc(N3CCC(F)C3)c2)c2nc(C(=O)NS(C)(=O)=O)cc(-c3ccc(N4CCOCC4)cc3)c12 (centres unmarked) [Compound 46, 1-[3-(3-fluoropyrrolidin-1-yl)phenyl]-N-(methanesulfonyl)-4-[4-(morpholin-4-yl)phenyl]-3-(propan-2-yl)-1H-pyrazolo[3,4-b]pyridine-6-carboxamide] | 643.27% | 446 nM | 457.3% | 706 nM
12 | Cc1nn(C2CCCCC2)c2nc(C(=O)NS(C)(=O)=O)cc(-c3ccc(N4CCOCC4)nc3)c12 [Compound 47, 1-cyclohexyl-N-(methanesulfonyl)-3-methyl-4-[6-(morpholin-4-yl)pyridin-3-yl]-1H-pyrazolo[3,4-b]pyridine-6-carboxamide] | 408.77% | 1600 nM | 169.73% | 1860 nM
13 | CCS(=O)(=O)NC(=O)c1cc(-c2ccc(N3CCOCC3)nc2)c2c(C)nn(C3CCCCC3)c2n1 [Compound 48, 1-cyclohexyl-N-(ethanesulfonyl)-3-methyl-4-[6-(morpholin-4-yl)pyridin-3-yl]-1H-pyrazolo[3,4-b]pyridine-6-carboxamide] | 417.8% | 1150 nM | 160.9% | 1200 nM
14 | Cc1nn(C2CCCCC2)c2nc(C(=O)NS(C)(=O)=O)cc(-c3cnc(N(C)C)nc3)c12 [Compound 49, 1-cyclohexyl-4-[2-(dimethylamino)pyrimidin-5-yl]-N-(methanesulfonyl)-3-methyl-1H-pyrazolo[3,4-b]pyridine-6-carboxamide] | 338% | 2000 nM | 115.3% | 2570 nM
15 | CCS(=O)(=O)NC(=O)c1cc(-c2cnc(N(C)C)nc2)c2c(C)nn(C3CCCCC3)c2n1 [Compound 50, 1-cyclohexyl-4-[2-(dimethylamino)pyrimidin-5-yl]-N-(ethanesulfonyl)-3-methyl-1H-pyrazolo[3,4-b]pyridine-6-carboxamide] | 300% | 1080 nM | 109.8% | 1680 nM
16 | CC(C)c1nn(C2CCCCC2)c2nc(C(=O)NS(C)(=O)=O)cc(-c3ccc(N(C)C4CCOCC4)nc3)c12 [Compound 51, 1-cyclohexyl-N-(methanesulfonyl)-4-{6-[methyl(oxan-4-yl)amino]pyridin-3-yl}-3-(propan-2-yl)-1H-pyrazolo[3,4-b]pyridine-6-carboxamide] | 420.67% | 312 nM | 172.4% | 457 nM
17 | CCS(=O)(=O)NC(=O)c1cc(-c2cnc(N(C)C)nc2)c2c(C3CN(C(=O)OC)C3)nn(C3CCCCC3)c2n1 [Compound 52, methyl 3-{1-cyclohexyl-4-[2-(dimethylamino)pyrimidin-5-yl]-6-[(ethanesulfonyl)carbamoyl]-1H-pyrazolo[3,4-b]pyridin-3-yl}azetidine-1-carboxylate] | 257.85% | 992 nM | 75.755% | 1150 nM
